Source: ChEMBL document CHEMBL5625170, “Design, synthesis, and biological evaluation of novel penindolone derivatives as potential inhibitors of hemagglutinin-mediated membrane fusion” (Eur J Med Chem, 2023)
The source made the active and inactive calls. The rule behind the calls is not given here.

Key:
Influenza A virus [1] = test: In vivo antiviral activity against Influenza A virus (A/Puerto Rico/8/34) infected in BALB/c mouse assessed as decrease in pulmonary viral titers at 2.5 to 5 mg/kg, po once daily treated after 4 hrs of inoculation for 4 days relative to control; type: functional, organism-based; conditions: dose 2.5-5 mg/kg, time 4.0 day
[2] = Toxicity in BALB/c mouse infected with Influenza A virus (A/Puerto Rico/8/34) assessed as decrease in body weight at 2.5 mg/kg, po upto 8 days; type: organism-based; conditions: in vivo, 192 h, time < 8 day
[3] = Toxicity in BALB/c mouse infected with Influenza A virus (A/Puerto Rico/8/34) assessed as death at 2.5 mg/kg, po after 8 days; type: organism-based; conditions: in vivo, 192 h, time 8 day
[4] = target: Hemagglutinin (Influenza A virus (A/Puerto Rico/8/1934(H1N1)), UniProt P03452); test: Binding affinity to Influenza A virus (A/Puerto Rico/8/34) Hemagglutinin by surface plasmon resonance (SPR) assay
MDCK [5] = test: Reduction in HA2 protein expression in Influenza A virus (A/Puerto Rico/8/34) infected in MDCK cell after 60 mins by Western blot analysis; type: functional, cell-based; conditions: dose 2.5-20 µM
Influenza A virus [6] = test: Anti-viral activity against Influenza A virus H1N1 (A/WSN/33; WSN) infected in MDCK cells assessed as inhibition of virus cytopathic effect measured after 48 hrs by crystal violet staining based assay; type: functional
Influenza A virus [7] = test: In vivo antiviral activity against Influenza A virus (A/Puerto Rico/8/34) infected in BALB/c mouse assessed as increase in mouse survival at 2.5 mg/kg, po once daily treated after 4 hrs of inoculation for 5 days; type: functional, organism-based; conditions: time 5.0 day
Influenza A virus [8] = test: Anti-viral activity against Influenza A virus H1N1 (A/Virginia09/ATCC1/2009; Vir09) infected in MDCK cells assessed as inhibition of virus cytopathic effect measured after 48 hrs by crystal violet staining based assay; type: functional
Influenza A virus [9] = test: Anti-viral activity against Influenza H1N1 virus (A/Virginia09/ATCC1/2009; Vir09) infected (at MOI = 3) in MDCK cell assessed as reduction in hemagglutinin titer using chicken RBC measured after 60 mins by hemagglutinin assay; type: functional, organism-based; conditions: H1N1 A/Virginia09/ATCC1/2009, dose 5-20 µM
[10] = Cytotoxicity against dog MDCK cells assessed as cell viability measured after 48 hrs by MTT assay; type: toxicity, cell-based, Canis lupus familiaris
[11] = target: Hemagglutinin (Influenza A virus (A/Puerto Rico/8/1934(H1N1))) (UniProt P03452); test: Inhibition of trypsin-mediated Influenza A virus (A/Puerto Rico/8/34) hemagglutinin protein digestion pretreated at 50 uM for 20 mins at pH 5 followed by treated with trypsin for 30 mins at pH 8.5 by SDS-PAGE/trypsin susceptibility (TS) assay
Influenza A virus [12] = test: In vivo antiviral activity against Influenza A virus (A/Puerto Rico/8/34) infected in BALB/c mouse assessed as increase in mouse survival at 2.5 mg/kg, po once daily treated after 4 hrs of inoculation for 14 days relative to control; type: functional; conditions: A/Puerto Rico/8/34, 336 h, time 14 day
MDCK [13] = test: Reduction in NS1 protein expression in Influenza A virus (A/Puerto Rico/8/34) infected in MDCK cell after 60 mins by Western blot analysis; type: functional, cell-based
Influenza A virus [14] = test: Potency index, ratio of penindolone-IC50 to test compound IC50 for anti-viral activity against Influenza A virus (A/Puerto Rico/8/34) infected in MDCK cells; type: functional
[15] = Selectivity index, ratio of CC50 for cytotoxicity against dog MDCK cells to IC50 for anti-viral activity against Influenza A virus (A/Puerto Rico/8/34 infected in MDCK cells; type: toxicity, cell-based; conditions: read-out: Selectivity Index
[16] = target: Hemagglutinin (Influenza A virus (A/Puerto Rico/8/1934(H1N1))) (UniProt P03452); test: Blockade of Influenza A virus (A/Puerto Rico/8/34) Hemagglutinin-mediated membrane fusion in Vero cells expressing PR8 HA assessed as syncytium formation at pH 5 and measured at 15 uM measured after 2 hrs by polykaryon assay; type: cell-based
Influenza A virus [17] = test: Anti-viral activity against Influenza virus H3N2 (A/Aichi/2/68; Aichi) infected in MDCK cells assessed as inhibition of virus cytopathic effect measured after 48 hrs by crystal violet staining based assay; type: functional
Influenza A virus [18] = test: Anti-viral activity against Influenza A virus H1N1 (A/Puerto Rico/8/34) infected (at MOI = 3) in MDCK cell assessed as reduction in hemagglutinin titer using chicken RBC measured after 60 mins by hemagglutinin assay; type: functional, organism-based; conditions: H1N1 A/Puerto Rico/8/34, MDCK, 1 h
Influenza A virus [19] = test: Anti-viral activity against Influenza virus H3N2 (A/Aichi/2/68; Aichi) infected (at MOI = 3) in MDCK cell assessed as reduction in hemagglutinin titer using chicken RBC measured after 60 mins by hemagglutinin assay; type: functional, organism-based; conditions: 1 h
[20] = target: Hemagglutinin (Influenza A virus (A/Puerto Rico/8/1934(H1N1))) (UniProt P03452); test: Blockade of Influenza A virus (A/Puerto Rico/8/34) Hemagglutinin-mediated membrane fusion in Vero cells expressing PR8 HA assessed as syncytium formation at pH 5 by quantitative membrane fusion assay; type: cell-based; conditions: dose 5-40 µM
[21] = Cytotoxicity against human A549 cells assessed as cell viability measured after 48 hrs by MTT assay; type: toxicity, cell-based
Influenza B virus = test: Anti-viral activity against Influenza B virus strain (B/Hong Kong/5/72) infected in MDCK cells assessed as inhibition of virus cytopathic effect measured after 48 hrs by crystal violet staining based assay; type: functional
Influenza A virus [22] = test: In vivo antiviral activity against Influenza A virus (A/Puerto Rico/8/34) infected in BALB/c mouse assessed as intact columnar epithelia in bronchiole without inflammatory cell infiltration at 5 mg/kg, po once daily treated after 4 hrs of inoculation for 4 days relative to control by HE staining based histopathological analysis; type: functional, organism-based
MDCK [23] = test: Reduction in NP protein expression in Influenza A virus (A/Puerto Rico/8/34) infected in MDCK cell at 40 uM after 60 mins by Western blot analysis; type: functional, cell-based
[24] = Cytotoxicity against african green monkey Vero cells assessed as cell viability measured after 48 hrs by MTT assay; type: toxicity, cell-based; conditions: chlorocebus sabaeus

Chain of Hemagglutinin (Influenza A virus (A/Puerto Rico/8/1934(H1N1))) (P03452 whole entry, the tested form may be a part): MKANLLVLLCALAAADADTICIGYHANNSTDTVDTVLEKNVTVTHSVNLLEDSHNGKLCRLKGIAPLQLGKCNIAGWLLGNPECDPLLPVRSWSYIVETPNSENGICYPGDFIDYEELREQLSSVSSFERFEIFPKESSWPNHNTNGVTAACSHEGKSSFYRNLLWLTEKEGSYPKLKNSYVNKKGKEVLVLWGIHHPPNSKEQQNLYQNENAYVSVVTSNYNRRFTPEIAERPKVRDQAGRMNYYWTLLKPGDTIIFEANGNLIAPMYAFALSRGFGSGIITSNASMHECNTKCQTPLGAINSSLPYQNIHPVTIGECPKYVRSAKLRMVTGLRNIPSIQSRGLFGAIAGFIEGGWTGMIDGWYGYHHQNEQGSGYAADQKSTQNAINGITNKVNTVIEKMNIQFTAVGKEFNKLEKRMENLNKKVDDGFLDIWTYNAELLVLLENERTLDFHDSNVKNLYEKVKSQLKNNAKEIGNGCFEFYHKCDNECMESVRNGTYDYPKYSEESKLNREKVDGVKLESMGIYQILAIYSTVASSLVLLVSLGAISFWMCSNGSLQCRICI
Chain of Hemagglutinin (Influenza A virus (A/Puerto Rico/8/1934(H1N1)), UniProt P03452) (P03452 whole entry): as the sequence (P03452 whole entry, the tested form may be a part) above

With `CC(=O)c1cc(C)c(O)c(Cc2[nH]c3ccc(-c4c5ccccc5cc5ccccc45)cc3c2Cc2c(O)c(C)cc(C(C)=O)c2O)c1O` the Activity (Influenza A virus [1]) was “Active”, the Activity [2] was “Non-Toxic” and the Activity [3] was “Toxic”. For the same molecule, the Kd [4] was 6.4 µM, the inhibition (MDCK [5]) was “Dose-Dependent Effect” and the “inhibition (INH)” value (Influenza A virus [6]) was 5.6%. The Activity (Influenza A virus [7]) was “Active”, the “inhibition (INH)” value (Influenza A virus [8]) was 13.5% and the inhibition (Influenza A virus [9]) was “Dose-Dependent Effect”. The CC50 at 48 h [10] was > 300 µM, the inhibition [11] was “Active” and the survival at 2.5 mg/kg (Influenza A virus [12]) was 70%. For the same molecule, the inhibition (MDCK [13]) was “Dose-Dependent Effect”, the “Ratio IC50” value (Influenza A virus [14]) was 3.8 and the selectivity ratio [15] was > 44.8. The inhibition [16] was “Active”, the “inhibition (INH)” value (Influenza A virus [17]) was 8.7% and the IC50 (Influenza A virus [18]) was < 5 µM. The IC50 (Influenza A virus [19]) was < 10 µM, the inhibition [20] was “Dose-Dependent Effect” and the CC50 at 48 h [21] was 180 µM. For the same molecule, the “inhibition (INH)” value (Influenza B virus) was 3.4%, the Activity (Influenza A virus [22]) was “Active” and the inhibition (MDCK [23]) was “Active”. For the same molecule, the CC50 at 48 h [24] was 1350 µM.
